Results as given in US5416194A, “Polypeptide having affinity for lipopolysaccharide and method for preparing the same” (Seikagaku Kogyo Co., Ltd., priority 1987, dated 1995).
Where no end group is shown, it is not given here.

How the values were obtained:
[1] = Gel precipitin reaction / double diffusion test in 1% agarose gel; type: binding
Experimental: In a solution of 1% agarose (0.1% NaN3 was added) dissolved in Tris-HCl-physiologic saline of pH 7.2, Beronall buffer of pH 8.6 and acetate buffer of pH 4.6, a sedimentation line was formed between LPS and the polypeptide (SEQ ID NO: 1) of the present invention or anti-LPS factor {basic protein having MW of 11,600, consisting of amino acid 102 residue obtained from extract (lysate) of Tachypleus tridentatus hemocyte; hereinafter referred to "ALF"}. The line was dyed in amide black. The diluent used for the polypeptide of the present invention was 50 mM Tris HCl--0.15M NaCl (pH 7.2).

[2] = test system: Salmonella typhimurium 1102(Re); assay: Antibacterial activity; type: cell-based
Experimental: (§1) Twenty μl of a 2-fold series diluted solution containing 0.5% polypeptide (SEQ ID NO: 1) of the present invention and 20 μl of bacterium solution (10^6 to 10^7/ ml) were cultured onto 160 μl of a culture medium of Penassay or a synthetic medium of Jarvis. After 18 hours at 37° C., its turbidity was measured by use of a micro plate reader at 550 nm and also partial live bacteria number and inhibition circle were measured.

[3] = test system: Salmonella typhimurium LT 2(S); assay: Antibacterial activity; type: cell-based
Experimental: as §1

Staphylococcus aureus = assay: Antibacterial activity; type: cell-based; conditions: Gram positive bacteria
Experimental: as §1

[4] = test system: Salmonella minnesota 1114 W(S); assay: Antibacterial activity; type: cell-based
Experimental: as §1

[5] = test system: Salmonella minnesota R 595(Re); assay: Antibacterial activity; type: cell-based
Experimental: as §1

[6] = test system: Spleen cells (SC) of C57BL male mouse; assay: Inhibition of blastogenesis of mouse lymphocyte by LPS (3H-TdR uptake, microscopy); type: cell-based; conditions: for magnification and colonization (blastogenesis) under the microscope: then 50 μg/ml LPS, three days; for inhibition of blastogenesis of lymphocyte: in the presence of LPS, 72 hours, 3H-TdR, FIG. 5
Experimental: Spleen cells (SC) of C57BL male mouse (5 weeks age) was collected by use of Ficoll-Hypaque gravity centrifugation and suspended in RPMI-1640 culture medium (no serum or added with BSA, FCS). The resulting culture medium was adjusted to 3×10^6 cell/ml and 100 μl was distributed into each of the 96-holes of a microtiter plate. 10 μl each of 0.4, 4, 40 and 400 μg/ml polypeptide of the present invention (LBP), finally then 80 μl of the culture medium, and finally 10 μl of 400 μg/ml LPS were added to the distibuted culture medium, followed by incubation in 5% CO2 incubator for 72 hours. ^3 H-thymidine (^3 H-TdR) was added thereto in an amount of 1 μci/10 μl 18 hours before completion of the incubation. The amount of ^3 H-TdR collected after peeling off of cells by use of cell harvester was measured by use of a liquid scintillation counter to discover the index of cell multiplication.
Cell multiplication was observed by using a microscope to take an insert image microphotograph.

[7] = test system: C factor (activation with LPS derived from E. coli 0111 B4 strain); assay: Inhibition of activation of C factor by LPS; type: biochemical, Horseshoe crab
Experimental: The acidic extract, concentrated and dried, was redissolved in 20mM HCl aq. soln. and then added into a Sephadex G-50 column (3.0×90.0 cm) (previously equilibrated with 20mM HCl aq. soln.) to effect gel filtration. The eluted fractions inhibiting activation of C factor with LPS (one derived from E. coli 0111 B4 strain was used) (Horseshoe crab blood coagulating serine protease precursor; LPS-sensitive factor named by the present inventors, Nakamura et al., Eur. J. Biochem., 154, 511 (1986 ) ) were collected, and the pH of the pooled fractions was adjusted to 6.0 with NaOH aq. soln.
The test results for the inhibition effect of the polypeptide (SEQ ID NO: 1) of the present invention against activation of C factor by LPS are shown in FIG. 2 and FIG. 3. FIG. 2 and FIG. 3 show the results in the absence or presence (1M) of sodium chloride, respectively. […] This property of binding electrically with LPS has been discovered by the present inventors. In FIG. 2 and FIG. 3, the marks (o) and show the results of the polypeptide of the present invention and polylysine, respectively.

[8] = test system: Peripheral blood mononuclear cells of healthy human; assay: Inhibition of blastogenesis of human peripheral lymphocyte by LPS (3H-TdR uptake); type: cell-based; conditions: 10 μg/ml LBP, 50 μg/ml LPS, 72 hours, FIG. 10
Experimental: Peripheral blood mononuclear cells (PBNC)of healthy human ([…]) were collected by use of Ficoll-Hypaque gravity centrifugation and suspended in RPMI-1640 culture medium (no serum or added with BSA, FCS). The resulting culture medium was adjusted to 2×10^6 cell/ml and 100 μl was distributed into each of the 96-holes of a microtiter plate. 10 μl of 200 μg/ml LBP, then 80 μl of the culture medium, and finally 10 μl of 400 μg/ml LPS were added to the distributed culture medium, followed by incubation in 5% CO2 incubator for, 72 hours. ^3 H-thymidine (^3 H-TdR) was added thereto in an amount of 1 μci/10 μl 18 hours before completion of the incubation. The amount of ^3 H-TdR collected after peeling of cells by use of cell harvester was measured by use of a liquid scintillation counter to discover the index of cell multiplication.

[9] = test system: LPS sensitized erythrocyte (human O-type); assay: Hemolysis activity on LPS sensitized erythrocyte; type: cell-based
Experimental: To 1 ml of suspension containing mainly 2.5% human O-type erythrocyte, 0.5 ml of LPS (1 mg/ml ) was added and the mixture was shaken at […] for 1 hour to mix, followed by washing with saline solution.
A mixture of 50 μl of 0.5% LPS sensitized erythrocyte, 50 μl of 2-fold series diluted solution of 0.5% polypeptide of the present invention and 100 μl of Tris-HCl-buffered saline saline buffer (pH 7.2) was maintained at 37° C. for 1 hour and thereafter 2.3 ml of physiologic saline was added thereto, followed by centrifugation with 2,500 rpm for 10 minutes. The amount of hemoglobin in the supernatant was determined by use of […] absorption. Also, the hemolysis pattern on a micro plate was determined by use of a micro plate reader (Corona MPT-100: trade name) after maintaining a mixture of 50 μl of 0.5% LPS sensitized erythrocyte and 50 μl of 2-fold series diluted solution of 0.5% polypeptide at 37° C. for 1 hour.

[10] = test system: non-sensitized erythrocyte; type: cell-based, human
bacteria = assay: Antibacterial activity in general, inhibition circle on agar containing bacteria; type: cell-based
Experimental: as §1

polypeptide (SEQ ID NO: 1): 17 amino acid polypeptide isolated from Tachypleus tridentatus hemocyte and also made by solid phase synthesis; C-end arginine amidated (KWCFRVCYRGICYRRCR-NH2; cysteine pairing not given here)
sedimentation line with LPS in the double diffusion test ([1]; 1% agarose gel): form a sedimentation line
sedimentation lines in the gel precipitation reaction ([1]; any LPS of Salmonella minnesota 1114 W, R595, E. coli 0111:B4, 0113 and J5): sharp sedimentation lines
antibacterial activity [2]: exhibited antibacterial activity
minimum antibacterial dose ([2]; 18 hours at 37° C.): 1.56 µg/mL
antibacterial activity [3]: exhibited antibacterial activity
minimum antibacterial dose ([3]; 18 hours at 37° C.): 3.13 µg/mL
antibacterial activity (Staphylococcus aureus): exhibited antibacterial activity
antibacterial activity [4]: exhibited antibacterial activity
antibacterial activity [5]: exhibited antibacterial activity
magnification and colonization (blastogenesis) under the microscope ([6]; 0.2 μg/ml LBP, FIG. 7): few change were revealed
magnification and colonization (blastogenesis) under the microscope ([6]; 2 μg/ml LBP, FIG. 8): magnification and colonization were hardly revealed
inhibition of blastogenesis of lymphocyte ([6]; 2 μg/ml LBP): ≥ 90%
magnification and colonization (blastogenesis) under the microscope ([6]; 20 μg/ml LBP, FIG. 9): magnification and colonization were hardly revealed
inhibition of blastogenesis of lymphocyte ([6]; 20 μg/ml LBP): ≥ 90%
concentration inhibiting activation of C factor with LPS 50% ([7]; 0.1 μg/ml of LPS (E. coli 0111 B4)): 0.12 µg/mL
IC50 ([7]; 0.1 μg/ml of LPS (E. coli 0111 B4), read-out: concentration inhibiting activation of C factor with LPS 50%): 50 nM
influence of salt concentration on inhibition of C factor activation by LPS ([7]; absence or presence (1M) of sodium chloride, FIG. 2 and FIG. 3, polylysine as control): strong affinity for LPS which is not influenced by the salt concentration
binding activity between LBP and LPS, C factor activity inhibition as index ([7]; amount of LBP relative to amount of LPS): about 20 times amount of LPS amount
inhibition of activation of C factor with LPS ([7]; at 1 μM (2.3 μg/ml) polypeptide, 0.1 μg/ml of LPS (E. coli 0111 B4)): completely
inhibition of blastogenesis of lymphocyte [8]: approximately 100%
hemolysis activity compared with ALF ([9]; ALF = anti-LPS factor, basic protein of MW 11,600 from Tachypleus tridentatus hemocyte lysate): weaker than that of ALF
effect of free LPS on hemolysis ([9]; free LPS added): hemolysis was inhibited by a free LPS
hemolysis at room temperature ([9]; high concentration, room temperature): exhibited hemolysis with ease
amount at which hemolysis of non-sensitized erythrocyte was observed [10]: ≥ 3.13 μ/ml
antibacterial activity compared with ALF (bacteria; ALF = anti-LPS factor from Tachypleus tridentatus hemocyte lysate): generally stronger than that of ALF
inhibition circle (bacteria; on an agar containing bacteria): formed depending on the concentration
